We go through 10 molecules from patent US20240158446A1, “CYCLIC COMPOUND HAVING SELECTIVE INHIBITORY ACTION ON KRAS OVER HRAS AND NRAS” (CHUGAI SEIYAKU KABUSHIKI KAISHA, priority 2021, published 2024).

Experiment [1] deals with GDP-bound NRAS wild-type protein (Homo sapiens, UniProt P01111). Kind of experiment: Binding to NRAS by surface plasmon resonance (SPR), Single Cycle Kinetics.
Experiment [2] concerns the target GDP-bound HRAS wild-type protein (Homo sapiens, UniProt P01112). Kind of experiment: Binding to HRAS by surface plasmon resonance (SPR), Single Cycle Kinetics.
Experiment [3] concerns the target GDP-bound KRAS wild-type protein (Homo sapiens, UniProt P01116). Put plainly: Binding to KRAS by surface plasmon resonance (SPR), Single Cycle Kinetics. Particulars: GDP-bound KRAS wild-type protein, read-out: KRAS KD.
[4] abbreviates: SPR, GDP-bound NRAS wild-type protein vs GDP-bound KRAS wild-type protein.
[5] abbreviates: SPR, GDP-bound HRAS wild-type protein vs GDP-bound KRAS wild-type protein.
Setting [6] is: SPR Single Cycle Kinetics, 1:1 binding model.
Where [7] appears, read: SPR, GDP-bound NRAS wild-type protein vs GDP-bound KRAS wild-type protein, KD ratio class.
Setting [8] is: SPR, GDP-bound HRAS wild-type protein vs GDP-bound KRAS wild-type protein, KD ratio class.
Where [9] appears, read: SPR, Single Cycle Kinetics, 1:1 binding model.

The structures appear in SMILES notation. pKd: −log10 of the molar value. Where two headings read alike, the source gives them in different places. Where a SMILES comes first, the peptide text is derived from it. Bridges are numbered along the chain shown (N, C = ends). [ ]: non-standard residue; d: D form. The star is where a group is joined. hPhe(3-Cl-4-CF3) = N[C@@H](CCc1ccc(C(F)(F)F)c(Cl)c1)C(=O)O; NPrPhe(4-CF3) = CCCN[C@@H](Cc1ccc(C(F)(F)F)cc1)C(=O)O; NMeAbu(4,4,4-F3) = CN[C@@H](CC(F)(F)F)C(=O)O; NMeGly(cPent) = CN[C@H](C(=O)O)C1CCCC1; Hyp = O=C(O)[C@@H]1C[C@@H](O)CN1; NMeD = CN[C@@H](CC(=O)O)C(=O)O; NMeL = CN[C@@H](CC(C)C)C(=O)O; hPip = O=C(O)[C@@H]1CCCCCN1; Morpholide = C1CN(*)CCO1; NMeA = CN[C@@H](C)C(=O)O; Ac5c = NC1(C(=O)O)CCCC1; Aze = O=C(O)[C@@H]1CCN1; Ac4c = NC1(C(=O)O)CCC1; NEtG = CCNCC(=O)O; Sar = CNCC(=O)O

Chain of GDP-bound KRAS wild-type protein (P01116 whole entry): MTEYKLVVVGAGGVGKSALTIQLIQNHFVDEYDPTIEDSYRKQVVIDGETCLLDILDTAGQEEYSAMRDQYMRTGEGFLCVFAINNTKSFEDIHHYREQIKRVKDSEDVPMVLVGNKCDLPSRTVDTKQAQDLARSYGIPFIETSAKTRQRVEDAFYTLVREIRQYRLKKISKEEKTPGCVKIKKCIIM
Chain of GDP-bound HRAS wild-type protein (P01112 whole entry): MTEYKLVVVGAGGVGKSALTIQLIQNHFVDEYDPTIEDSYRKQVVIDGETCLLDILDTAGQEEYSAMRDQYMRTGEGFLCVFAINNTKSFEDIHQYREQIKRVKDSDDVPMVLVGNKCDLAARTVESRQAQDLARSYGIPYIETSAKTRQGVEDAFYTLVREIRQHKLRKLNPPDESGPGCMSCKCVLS
Chain of GDP-bound NRAS wild-type protein (P01111 whole entry): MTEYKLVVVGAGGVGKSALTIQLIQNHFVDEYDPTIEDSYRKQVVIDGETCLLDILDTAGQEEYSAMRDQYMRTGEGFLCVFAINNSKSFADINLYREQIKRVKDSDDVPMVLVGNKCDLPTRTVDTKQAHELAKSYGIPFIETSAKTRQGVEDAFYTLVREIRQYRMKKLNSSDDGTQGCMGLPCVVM

With `CCCN1C(=O)[C@@H]2CCN2C(=O)[C@H](C)N(C)C(=O)[C@H]([C@@H](C)CC)NC(=O)[C@H](CC(F)(F)F)N(C)C(=O)C[C@@H](C(=O)N2CCOCC2)N(C)C(=O)[C@H](C2CCCC2)N(C)C(=O)C2(CCCC2)NC(=O)[C@@H]2CCCN2C(=O)[C@H](CCc2ccc(C(F)(F)F)c(Cl)c2)NC(=O)CN(C)C(=O)[C@@H]1Cc1ccc(C(F)(F)F)cc1` [PP0191] ([NMeAbu(4,4,4-F3)]I[NMeA][Aze][NPrPhe(4-CF3)][Sar][hPhe(3-Cl-4-CF3)]P[Ac5c][NMeGly(cPent)][NMeD]-Morpholide; lactam N-11), the “NRAS/KRAS (ratio of KD value for NRAS to KD value for KRAS)” value in experiment [1] (setting [4]) is “C (A compound having a KD ratio of 0.1 or more and less than 3 is denoted as C)”. Besides, the “HRAS/KRAS (ratio of KD value for HRAS to KD value for KRAS)” value in experiment [2] (setting [5]) is “B (a compound having 3 or more and less than 10 is denoted as B)”. The pKd in experiment [3] (setting [6]) was 9.85.
With `C#CC[C@H]1C(=O)N[C@@H]([C@@H](C)CC)C(=O)N(C)CC(=O)N(C)[C@H]2C/C=C\CCN(C2=O)[C@@H](Cc2ccc(C(F)(F)F)cc2)C(=O)N(C)CC(=O)N[C@@H](CCc2ccc(C(F)(F)F)c(OC)c2)C(=O)N2C[C@H](OCC)C[C@H]2C(=O)NC2(CC(C)(C)C2)C(=O)N(C)[C@@H](C2CCCC2)C(=O)N(C)[C@H](C(=O)N(C)CCC)CC(=O)N1C` [PP2053], in experiment [1] (setting [4]), the “NRAS/KRAS (ratio of KD value for NRAS to KD value for KRAS)” value was “A (a compound having 10 or more and less than 20 is denoted as A)”. For the same molecule, the “HRAS/KRAS (ratio of KD value for HRAS to KD value for KRAS)” value in experiment [2] (setting [5]) was “A (a compound having 10 or more and less than 20 is denoted as A)”. Moreover, the pKd in experiment [3] (SPR, Single Cycle Kinetics) is 9.89.
Consider `C#CC[C@H]1C(=O)N[C@@H]([C@@H](C)CC)C(=O)N(C)CC(=O)N(C)[C@H]2C/C=C\CCN(C2=O)[C@@H](Cc2ccc(C)cc2)C(=O)N(C)CC(=O)N[C@@H](CCc2ccc(C(F)(F)F)c(Cl)c2)C(=O)N2CC3(CC3)C[C@H]2C(=O)NC2(CC(C)(C)C2)C(=O)N(C)[C@@H](C2CCCC2)C(=O)N(C)[C@H](C(=O)N(C)C)CC(=O)N1C` [PP2982], for which the “NRAS/KRAS (ratio of KD value for NRAS to KD value for KRAS)” value in experiment [1] (setting [4]) is “A (a compound having 10 or more and less than 20 is denoted as A)”. Besides, in experiment [2] (setting [5]), the “HRAS/KRAS (ratio of KD value for HRAS to KD value for KRAS)” value was “A (a compound having 10 or more and less than 20 is denoted as A)”. In addition, in experiment [3] (SPR, Single Cycle Kinetics), the negative-log Kd (pKd) was 9.80.
Regarding `CCO[C@@H]1C[C@H]2C(=O)NC3(CC(C)(C)C3)C(=O)N(C)[C@@H](C(CC)CC)C(=O)N(C)[C@H](C(=O)N3CCCC3)CC(=O)N(C)[C@H]3CCC/C=C/c4ccc(cc4)C[C@@H](C(=O)N(C)CC(=O)N[C@@H](CCc4cc(F)c(C(F)(F)F)c(F)c4)C(=O)N2C1)N1CC/C=C\C[C@@H](C1=O)N(C)C(=O)CN(C)C(=O)[C@H]([C@@H](C)CC)NC3=O` [PP2576], the “NRAS/KRAS (ratio of KD value with respect to GDP-bound NRAS wild-type protein to KD value with respect to KRAS)” value in experiment [1] (SPR KD ratio NRAS/KRAS, class symbols) was “A (a compound having 10 or more and less than 20 is denoted as A)”. Besides, the “HRAS/KRAS (ratio of KD value with respect to GDP-bound HRAS wild-type protein to KD value with respect to KRAS)” value in experiment [2] (SPR KD ratio HRAS/KRAS, class symbols) was “A (a compound having 10 or more and less than 20 is denoted as A)”. For the same molecule, in experiment [3] (setting [6]), the pKd is 9.85.
Turning to `CCO[C@@H]1C[C@H]2C(=O)NC3(CCC3)C(=O)N(C)[C@@H](C3CCCC3)C(=O)N(C)[C@H](C(=O)N(C)C)CC(=O)N(C)[C@@H](CC)C(=O)N[C@@H]([C@@H](C)CC)C(=O)N(C)CC(=O)N(C)[C@H]3CCCCN(C3=O)[C@@H](Cc3ccc(C(F)(F)F)cc3)C(=O)N(C)CC(=O)N[C@@H](CCc3ccc(C(F)(F)F)c(OC)c3)C(=O)N2C1` [PP0884], the “NRAS/KRAS (ratio of KD value for NRAS to KD value for KRAS)” value in experiment [1] (setting [4]) was “C (A compound having a KD ratio of 0.1 or more and less than 3 is denoted as C)”. In addition, the “HRAS/KRAS (ratio of KD value for HRAS to KD value for KRAS)” value in experiment [2] (setting [5]) is “C (A compound having a KD ratio of 0.1 or more and less than 3 is denoted as C)”. Besides, the pKd in experiment [3] (SPR, Single Cycle Kinetics) was 10.66.
Take `CCCN1C(=O)CN(C)C(=O)CN(CC)C(=O)[C@H]([C@@H](C)CC)NC(=O)[C@H](CC(C)C)N(C)C(=O)C[C@@H](C(=O)N(C)C)N(C)C(=O)[C@H](C2CCCC2)N(C)C(=O)C2(CCC2)NC(=O)[C@@H]2C[C@@H](OCC)CN2C(=O)[C@H](CCc2ccc(C(F)(F)F)c(Cl)c2)NC(=O)CN(C)C(=O)[C@@H]1Cc1ccc(C(F)(F)F)cc1` [PP0428] ([NMeL]I[NEtG][Sar][NPrPhe(4-CF3)][Sar][hPhe(3-Cl-4-CF3)][Hyp](Et)[Ac4c][NMeGly(cPent)][NMeD]-NMe2; lactam N-11): in experiment [1] (setting [4]), the “NRAS/KRAS (ratio of KD value with respect to NRAS to KD value with respect to KRAS)” value was “B (a compound having 3 or more and less than 10 is denoted as B)”. Also, the “HRAS/KRAS (ratio of KD value with respect to HRAS to KD value with respect to KRAS)” value in experiment [2] (setting [5]) is “C (A compound having a KD ratio of 0.1 or more and less than 3 is denoted as C)”. Besides, the pKd in experiment [3] (setting [6]) was 10.20.
Regarding `CCCN1C(=O)CN(C)C(=O)CN(C)C(=O)[C@H]([C@@H](C)CC)NC(=O)[C@@H]2CCCCCN2C(=O)C[C@@H](C(=O)N2CCOCC2)N(C)C(=O)[C@H](C2CCCC2)N(C)C(=O)C2(CCCC2)NC(=O)[C@@H]2CCCN2C(=O)[C@H](CCc2ccc(C(F)(F)F)c(Cl)c2)NC(=O)CN(C)C(=O)[C@@H]1Cc1ccc(C(F)(F)F)cc1` [PP0247] ([hPip]I[Sar][Sar][NPrPhe(4-CF3)][Sar][hPhe(3-Cl-4-CF3)]P[Ac5c][NMeGly(cPent)][NMeD]-Morpholide; lactam N-11), the “NRAS/KRAS (ratio of KD value for NRAS to KD value for KRAS)” value in experiment [1] (setting [4]) is “B (a compound having 3 or more and less than 10 is denoted as B)”. Further, the “HRAS/KRAS (ratio of KD value for HRAS to KD value for KRAS)” value in experiment [2] (setting [5]) was “C (A compound having a KD ratio of 0.1 or more and less than 3 is denoted as C)”. The pKd in experiment [3] (setting [6]) is 9.42.
For `CCO[C@@H]1C[C@H]2C(=O)NC3(CCCC3)C(=O)N(C)[C@@H](C3CCCC3)C(=O)N(C)[C@H](C(=O)N3CCOCC3)CC(=O)N(C)[C@@H](CC)C(=O)N[C@@H]([C@@H](C)CC)C(=O)N(C)CC(=O)N(C)[C@H]3C[C@H](C)C(C)CN(C3=O)[C@@H](Cc3ccc(C(F)(F)F)cc3)C(=O)N(C)CC(=O)N[C@@H](CCc3cc(F)c(C(F)(F)F)c(F)c3)C(=O)N2C1` (stereo partly drawn) [PP1348], in experiment [1] (setting [7]), the “NRAS/KRAS (ratio of KD value for NRAS to KD value for KRAS)” value is “B (a compound having 3 or more and less than 10 is denoted as B)”. Besides, in experiment [2] (setting [8]), the “HRAS/KRAS (ratio of KD value for HRAS to KD value for KRAS)” value is “B (a compound having 3 or more and less than 10 is denoted as B)”. For the same molecule, the negative logarithm of the Kd (pKd) in experiment [3] (setting [9]) is 10.12.
In the case of `CC[C@H](C)[C@@H]1NC(=O)[C@H](CC2CCCC2)N(C)C(=O)C[C@@H](C(=O)N(C)C)N(C)C(=O)[C@H](C2CCCC2)N(C)C(=O)C2(CCC2)NC(=O)[C@@H]2C[C@@H](C(F)(F)F)CN2C(=O)[C@H](CCc2cc(F)c(C(F)(F)F)c(F)c2)NC(=O)CN(C)C(=O)[C@H](Cc2ccc(C(F)(F)F)cc2)N2CC/C=C\C[C@@H](C2=O)N(C)C(=O)CN(C)C1=O` [PP1505], in experiment [1] (setting [7]), the “NRAS/KRAS (ratio of KD value for NRAS to KD value for KRAS)” value was “A (a compound having 10 or more and less than 20 is denoted as A)”. In addition, in experiment [2] (setting [8]), the “HRAS/KRAS (ratio of KD value for HRAS to KD value for KRAS)” value was “A (a compound having 10 or more and less than 20 is denoted as A)”. In addition, the pKd in experiment [3] (setting [9]) was 10.04.
In the case of `CCO[C@@H]1C[C@H]2C(=O)NC3(CC(C)(C)C3)C(=O)N(C)[C@@H](C(CC)CC)C(=O)N(C)[C@H](C(=O)N(C)C)CC(=O)N(C)[C@@H](C(C)C)C(=O)N[C@@H]([C@@H](C)CC)C(=O)N(C)CC(=O)N(C)[C@H]3C/C=C\CCN(C3=O)[C@@H](Cc3ccc(C(F)(F)F)cc3)C(=O)N(C)CC(=O)N[C@@H](CCc3ccc(C(F)(F)F)c(Cl)c3)C(=O)N2C1` [PP2140], the “NRAS/KRAS (ratio of KD value for NRAS to KD value for KRAS)” value in experiment [1] (setting [4]) is reported as “AA (a compound having 20 or more is denoted as AA)”. Besides, in experiment [2] (setting [5]), the “HRAS/KRAS (ratio of KD value for HRAS to KD value for KRAS)” value was “A (a compound having 10 or more and less than 20 is denoted as A)”. For the same molecule, in experiment [3] (SPR, Single Cycle Kinetics), the pKd was 9.15.
